Consider two compounds from patent publication US8143409B2, “Crystalline form of rabeprazole sodium” (Dipharma Francis S.R.L., priority 2006, dated 2012).

Each structure is given as a SMILES string.

Data set [1] in a line: Stability of the crystalline hydrate form at room temperature. Conditions: compared with hydrated crystalline forms alpha and beta. The data set is classed as physicochemical.
Data set [2] can be described thus: Thermodynamic stability by comparing DSC thermograms. The data set is classed as physicochemical. To be noted: compared with known hydrate forms α and β, by comparing the respective DSC thermograms. As to the method:
DSC thermograms were recorded with a Mettler-Toledo differential scansion calorimeter DSC 822, under the following operative conditions: aluminium capsules, 30-400° C. range with increase of 10° C./min, under nitrogen as purging gas (80 ml/min).
A general note: In DSC, transitions show as peaks or steps in heat flow.

For data set [3] the following is noted: isomorphic forms of EP 1674463; makes handling and storing easy; cited from earlier work.

Regarding `COCCCOc1ccnc(C[S+]([O-])c2nc3ccccc3[n-]2)c1C.[Na+]` (stereo not drawn) [Form γ, 2-[[[4-(3-methoxypropoxy)-3-methyl-2-pyridinyl]-methyl]sulfinyl]-1H-benzylimidazole sodium salt], the stability entry in data set [1] is “more stable at room temperature”. The thermodynamic stability entry in data set [2] was “thermodynamically more stable than the known hydrate forms α and β”. Turning to `COCCCOc1ccnc(C[S+]([O-])c2nc3ccccc3[n-]2)c1C.[Na+]` (stereo not drawn) [alpha], the hygroscopicity entry in data set [3] is “low hygroscopicity”.
